# Data: the NIST ThermoML archive (doi:10.1016/j.fluid.2014.03.017)
# Numbers after ± are expanded uncertainties.
# Assay: molar heat capacity at constant pressure
# Details: Liquid, Flow calorimetry
smiles,measurement,setting,value
"CCOC(F)(F)C(F)(F)C(F)(F)C(F)(F)F [1-ethoxy-1,1,2,2,3,3,4,4,4-nonafluorobutane]",molar heat capacity at constant pressure,"245.62 K, 100 kPa",307.66 ± 12 J/K/mol
same,molar heat capacity at constant pressure,"245.63 K, 10000 kPa",295.52 ± 12 J/K/mol
same,molar heat capacity at constant pressure,"245.64 K, 5000 kPa",299.74 ± 12 J/K/mol
same,molar heat capacity at constant pressure,"245.64 K, 15000 kPa",286.54 ± 11 J/K/mol
same,molar heat capacity at constant pressure,"254.42 K, 100 kPa",317.7 ± 13 J/K/mol
same,molar heat capacity at constant pressure,"254.44 K, 5000 kPa",310.04 ± 12 J/K/mol
same,molar heat capacity at constant pressure,"254.44 K, 10000 kPa",305.81 ± 12 J/K/mol
same,molar heat capacity at constant pressure,"254.44 K, 15000 kPa",297.89 ± 12 J/K/mol
same,molar heat capacity at constant pressure,"264.28 K, 100 kPa",328.53 ± 13 J/K/mol
same,molar heat capacity at constant pressure,"264.29 K, 10000 kPa",319.55 ± 13 J/K/mol
same,molar heat capacity at constant pressure,"264.3 K, 5000 kPa",321.66 ± 13 J/K/mol
same,molar heat capacity at constant pressure,"264.3 K, 15000 kPa",307.4 ± 12 J/K/mol
same,molar heat capacity at constant pressure,"274.14 K, 100 kPa",337.24 ± 13 J/K/mol
same,molar heat capacity at constant pressure,"274.16 K, 10000 kPa",328.26 ± 13 J/K/mol
same,molar heat capacity at constant pressure,"274.17 K, 5000 kPa",332.49 ± 13 J/K/mol
same,molar heat capacity at constant pressure,"274.17 K, 15000 kPa",318.23 ± 13 J/K/mol
same,molar heat capacity at constant pressure,"283.97 K, 100 kPa",343.58 ± 14 J/K/mol
same,molar heat capacity at constant pressure,"283.98 K, 10000 kPa",340.67 ± 14 J/K/mol
same,molar heat capacity at constant pressure,"283.99 K, 5000 kPa",338.83 ± 13 J/K/mol
same,molar heat capacity at constant pressure,"283.99 K, 15000 kPa",333.02 ± 13 J/K/mol
same,molar heat capacity at constant pressure,"293.9 K, 100 kPa",365.5 ± 15 J/K/mol
same,molar heat capacity at constant pressure,"293.92 K, 10000 kPa",356.52 ± 14 J/K/mol
same,molar heat capacity at constant pressure,"293.93 K, 5000 kPa",360.75 ± 15 J/K/mol
same,molar heat capacity at constant pressure,"293.93 K, 15000 kPa",344.64 ± 14 J/K/mol
same,molar heat capacity at constant pressure,"303.85 K, 100 kPa",373.69 ± 15 J/K/mol
same,molar heat capacity at constant pressure,"303.85 K, 10000 kPa",364.71 ± 15 J/K/mol
same,molar heat capacity at constant pressure,"303.86 K, 5000 kPa",368.93 ± 15 J/K/mol
same,molar heat capacity at constant pressure,"303.86 K, 15000 kPa",356.52 ± 14 J/K/mol
same,molar heat capacity at constant pressure,"313.79 K, 100 kPa",389.8 ± 16 J/K/mol
same,molar heat capacity at constant pressure,"313.9 K, 10000 kPa",377.91 ± 15 J/K/mol
same,molar heat capacity at constant pressure,"313.91 K, 5000 kPa",385.04 ± 15 J/K/mol
same,molar heat capacity at constant pressure,"313.91 K, 15000 kPa",369.2 ± 15 J/K/mol
same,molar heat capacity at constant pressure,"323.6 K, 100 kPa",393.76 ± 16 J/K/mol
same,molar heat capacity at constant pressure,"323.62 K, 10000 kPa",384.78 ± 15 J/K/mol
same,molar heat capacity at constant pressure,"323.63 K, 5000 kPa",389 ± 16 J/K/mol
same,molar heat capacity at constant pressure,"323.63 K, 15000 kPa",384.51 ± 15 J/K/mol
same,molar heat capacity at constant pressure,"333.28 K, 100 kPa",407.23 ± 16 J/K/mol
same,molar heat capacity at constant pressure,"333.29 K, 5000 kPa",402.47 ± 16 J/K/mol
same,molar heat capacity at constant pressure,"333.29 K, 10000 kPa",398.25 ± 16 J/K/mol
same,molar heat capacity at constant pressure,"333.29 K, 15000 kPa",399.04 ± 16 J/K/mol
same,molar heat capacity at constant pressure,"343.51 K, 100 kPa",419.9 ± 17 J/K/mol
same,molar heat capacity at constant pressure,"343.52 K, 10000 kPa",410.92 ± 16 J/K/mol
same,molar heat capacity at constant pressure,"343.53 K, 5000 kPa",414.88 ± 17 J/K/mol
same,molar heat capacity at constant pressure,"343.53 K, 15000 kPa",407.49 ± 16 J/K/mol
same,molar heat capacity at constant pressure,"353.61 K, 100 kPa",431.79 ± 17 J/K/mol
same,molar heat capacity at constant pressure,"353.62 K, 10000 kPa",422.81 ± 17 J/K/mol
same,molar heat capacity at constant pressure,"353.63 K, 5000 kPa",426.77 ± 17 J/K/mol
same,molar heat capacity at constant pressure,"353.63 K, 15000 kPa",420.43 ± 17 J/K/mol
CCOC(F)(C(F)(F)C(F)(F)C(F)(F)F)C(F)(C(F)(F)F)C(F)(F)F (centres undefined) [2-trifluoromethyl-3-ethoxydodecafluorohexane],molar heat capacity at constant pressure,"248.45 K, 100 kPa",309.34 ± 12 J/K/mol
same,molar heat capacity at constant pressure,"248.45 K, 5000 kPa",304.79 ± 12 J/K/mol
same,molar heat capacity at constant pressure,"248.45 K, 10000 kPa",300.64 ± 12 J/K/mol
same,molar heat capacity at constant pressure,"248.45 K, 15000 kPa",300.23 ± 12 J/K/mol
same,molar heat capacity at constant pressure,"254.4 K, 100 kPa",329.22 ± 13 J/K/mol
same,molar heat capacity at constant pressure,"254.4 K, 5000 kPa",325.49 ± 13 J/K/mol
same,molar heat capacity at constant pressure,"254.4 K, 10000 kPa",320.94 ± 13 J/K/mol
same,molar heat capacity at constant pressure,"254.4 K, 15000 kPa",319.28 ± 13 J/K/mol
same,molar heat capacity at constant pressure,"264.24 K, 100 kPa",362.35 ± 14 J/K/mol
same,molar heat capacity at constant pressure,"264.24 K, 5000 kPa",358.21 ± 14 J/K/mol
same,molar heat capacity at constant pressure,"264.24 K, 10000 kPa",354.07 ± 14 J/K/mol
same,molar heat capacity at constant pressure,"264.24 K, 15000 kPa",351.17 ± 14 J/K/mol
same,molar heat capacity at constant pressure,"273.51 K, 100 kPa",393.82 ± 16 J/K/mol
same,molar heat capacity at constant pressure,"273.51 K, 5000 kPa",390.92 ± 16 J/K/mol
same,molar heat capacity at constant pressure,"273.51 K, 10000 kPa",387.19 ± 15 J/K/mol
same,molar heat capacity at constant pressure,"273.51 K, 15000 kPa",380.98 ± 15 J/K/mol
same,molar heat capacity at constant pressure,"283.77 K, 100 kPa",428.61 ± 17 J/K/mol
same,molar heat capacity at constant pressure,"283.77 K, 5000 kPa",428.19 ± 17 J/K/mol
same,molar heat capacity at constant pressure,"283.77 K, 10000 kPa",426.12 ± 17 J/K/mol
same,molar heat capacity at constant pressure,"283.77 K, 15000 kPa",414.53 ± 17 J/K/mol
same,molar heat capacity at constant pressure,"294.36 K, 100 kPa",470.02 ± 19 J/K/mol
same,molar heat capacity at constant pressure,"294.36 K, 5000 kPa",463.8 ± 19 J/K/mol
same,molar heat capacity at constant pressure,"294.36 K, 10000 kPa",461.73 ± 19 J/K/mol
same,molar heat capacity at constant pressure,"294.36 K, 15000 kPa",456.35 ± 18 J/K/mol
same,molar heat capacity at constant pressure,"304.12 K, 100 kPa",490.31 ± 19 J/K/mol
same,molar heat capacity at constant pressure,"304.12 K, 5000 kPa",485.34 ± 19 J/K/mol
same,molar heat capacity at constant pressure,"304.12 K, 10000 kPa",484.1 ± 19 J/K/mol
same,molar heat capacity at constant pressure,"304.12 K, 15000 kPa",476.23 ± 19 J/K/mol
same,molar heat capacity at constant pressure,"313.92 K, 100 kPa",531.72 ± 21 J/K/mol
same,molar heat capacity at constant pressure,"313.92 K, 5000 kPa",528.41 ± 21 J/K/mol
same,molar heat capacity at constant pressure,"313.92 K, 10000 kPa",526.75 ± 21 J/K/mol
same,molar heat capacity at constant pressure,"313.92 K, 15000 kPa",516.81 ± 21 J/K/mol
same,molar heat capacity at constant pressure,"323.65 K, 100 kPa",565.26 ± 23 J/K/mol
same,molar heat capacity at constant pressure,"323.65 K, 5000 kPa",559.05 ± 22 J/K/mol
same,molar heat capacity at constant pressure,"323.65 K, 10000 kPa",547.87 ± 22 J/K/mol
same,molar heat capacity at constant pressure,"323.65 K, 15000 kPa",543.31 ± 22 J/K/mol
same,molar heat capacity at constant pressure,"333.47 K, 100 kPa",587.21 ± 24 J/K/mol
same,molar heat capacity at constant pressure,"333.47 K, 5000 kPa",578.1 ± 23 J/K/mol
same,molar heat capacity at constant pressure,"333.47 K, 10000 kPa",571.47 ± 23 J/K/mol
same,molar heat capacity at constant pressure,"333.47 K, 15000 kPa",565.68 ± 23 J/K/mol
same,molar heat capacity at constant pressure,"343.39 K, 100 kPa",629.04 ± 25 J/K/mol
same,molar heat capacity at constant pressure,"343.39 K, 5000 kPa",620.75 ± 25 J/K/mol
same,molar heat capacity at constant pressure,"343.39 K, 10000 kPa",612.88 ± 24 J/K/mol
same,molar heat capacity at constant pressure,"343.39 K, 15000 kPa",606.67 ± 24 J/K/mol
same,molar heat capacity at constant pressure,"353.38 K, 100 kPa",669.2 ± 27 J/K/mol
same,molar heat capacity at constant pressure,"353.38 K, 5000 kPa",656.78 ± 26 J/K/mol
same,molar heat capacity at constant pressure,"353.38 K, 10000 kPa",653.88 ± 26 J/K/mol
same,molar heat capacity at constant pressure,"353.38 K, 15000 kPa",649.74 ± 26 J/K/mol
O [water],molar heat capacity at constant pressure,"294.2 K, 10000 kPa",73.7 ± 3 J/K/mol
same,molar heat capacity at constant pressure,"294.24 K, 100 kPa",74.96 ± 3 J/K/mol
same,molar heat capacity at constant pressure,"294.24 K, 5000 kPa",74.89 ± 3 J/K/mol
same,molar heat capacity at constant pressure,"294.27 K, 15000 kPa",74.67 ± 3 J/K/mol
same,molar heat capacity at constant pressure,"303.93 K, 100 kPa",75.43 ± 3 J/K/mol
same,molar heat capacity at constant pressure,"303.97 K, 5000 kPa",75.34 ± 3 J/K/mol
same,molar heat capacity at constant pressure,"303.97 K, 15000 kPa",76.01 ± 3 J/K/mol
same,molar heat capacity at constant pressure,"303.98 K, 10000 kPa",75.05 ± 3 J/K/mol
same,molar heat capacity at constant pressure,"313.68 K, 100 kPa",76.44 ± 3.1 J/K/mol
same,molar heat capacity at constant pressure,"313.68 K, 10000 kPa",75.93 ± 3 J/K/mol
same,molar heat capacity at constant pressure,"313.69 K, 5000 kPa",76.02 ± 3 J/K/mol
same,molar heat capacity at constant pressure,"313.69 K, 15000 kPa",75.83 ± 3 J/K/mol
same,molar heat capacity at constant pressure,"323.43 K, 100 kPa",76.28 ± 3 J/K/mol
same,molar heat capacity at constant pressure,"323.43 K, 5000 kPa",75.84 ± 3 J/K/mol
same,molar heat capacity at constant pressure,"323.43 K, 10000 kPa",75.47 ± 3 J/K/mol
same,molar heat capacity at constant pressure,"323.43 K, 15000 kPa",74.96 ± 3 J/K/mol
same,molar heat capacity at constant pressure,"333.33 K, 100 kPa",75.9 ± 3 J/K/mol
same,molar heat capacity at constant pressure,"333.33 K, 5000 kPa",75.47 ± 3 J/K/mol
same,molar heat capacity at constant pressure,"333.33 K, 10000 kPa",75.23 ± 3 J/K/mol
same,molar heat capacity at constant pressure,"333.33 K, 15000 kPa",75.11 ± 3 J/K/mol
same,molar heat capacity at constant pressure,"343.28 K, 100 kPa",76.31 ± 3.1 J/K/mol
same,molar heat capacity at constant pressure,"343.28 K, 5000 kPa",75.95 ± 3 J/K/mol
same,molar heat capacity at constant pressure,"343.28 K, 10000 kPa",75.29 ± 3 J/K/mol
same,molar heat capacity at constant pressure,"343.28 K, 15000 kPa",75.07 ± 3 J/K/mol
same,molar heat capacity at constant pressure,"353.25 K, 5000 kPa",75.84 ± 3 J/K/mol
same,molar heat capacity at constant pressure,"353.25 K, 10000 kPa",75.63 ± 3 J/K/mol
same,molar heat capacity at constant pressure,"353.25 K, 15000 kPa",75.25 ± 3 J/K/mol
same,molar heat capacity at constant pressure,"353.26 K, 100 kPa",76.04 ± 3 J/K/mol
